Legend:
HL-60(TB) = test: NCI-60 anticancer screening (SRB); format: cell-based; details: Homo sapiens, leukemia, one dose 10 μM, read-out: Growth Inhibition Percentage (GI %)
MOLT-4 = test: NCI-60 anticancer screening (SRB); format: cell-based; details: Homo sapiens; MOLT-4, leukemia; one dose 10 μM; read-out: Growth Inhibition Percentage (GI %)
A549/ATCC = test: NCI-60 anticancer screening (SRB); format: cell-based; details: Homo sapiens; A549/ATCC, NSC lung cancer; one dose 10 μM; read-out: Growth Inhibition Percentage (GI %)
EKVX = test: NCI-60 anticancer screening (SRB); format: cell-based; details: Homo sapiens, NSC lung cancer, one dose 10 μM, read-out: Growth Inhibition Percentage (GI %)
HOP-62 = test: NCI-60 anticancer screening (SRB); format: cell-based; details: Homo sapiens; HOP-62, NSC lung cancer; one dose 10 μM; read-out: Growth Inhibition Percentage (GI %)
NCI-H226 = test: NCI-60 anticancer screening (SRB); format: cell-based; details: Homo sapiens; NCI-H226, NSC lung cancer; one dose 10 μM; read-out: Growth Inhibition Percentage (GI %)
NCI-H322M = test: NCI-60 anticancer screening (SRB); format: cell-based; details: Homo sapiens, NSC lung cancer, one dose 10 μM, read-out: Growth Inhibition Percentage (GI %)
NCI-H522 = test: NCI-60 anticancer screening (SRB); format: cell-based; details: Homo sapiens; NCI-H522, NSC lung cancer; one dose 10 μM; read-out: Growth Inhibition Percentage (GI %)
COLO 205 = test: NCI-60 anticancer screening (SRB); format: cell-based; details: Homo sapiens; COLO 205, colon cancer; one dose 10 μM; read-out: Growth Inhibition Percentage (GI %)
HCC-2998 = test: NCI-60 anticancer screening (SRB); format: cell-based; details: Homo sapiens; HCC-2998, colon cancer; one dose 10 μM; read-out: Growth Inhibition Percentage (GI %)
HCT-15 = test: NCI-60 anticancer screening (SRB); format: cell-based; details: Homo sapiens; HCT-15, colon cancer; one dose 10 μM; read-out: Growth Inhibition Percentage (GI %)
KM 12 = test: NCI-60 anticancer screening (SRB); format: cell-based; details: Homo sapiens, KM12; KM 12, colon cancer; one dose 10 μM; read-out: Growth Inhibition Percentage (GI %)
SNB-19 = test: NCI-60 anticancer screening (SRB); format: cell-based; details: Homo sapiens; SNB-19, CNS cancer; one dose 10 μM; read-out: Growth Inhibition Percentage (GI %)
SNB-75 = test: NCI-60 anticancer screening (SRB); format: cell-based; details: Homo sapiens; SNB-75, CNS cancer; one dose 10 μM; read-out: Growth Inhibition Percentage (GI %)
U251 = test: NCI-60 anticancer screening (SRB); format: cell-based; details: Homo sapiens, U-251; U251, CNS cancer; one dose 10 μM; read-out: Growth Inhibition Percentage (GI %)
MALME-3M = test: NCI-60 anticancer screening (SRB); format: cell-based; details: Homo sapiens, melanoma, one dose 10 μM, read-out: Growth Inhibition Percentage (GI %)
MDA-MB-435 = test: NCI-60 anticancer screening (SRB); format: cell-based; details: Homo sapiens; MDA-MB-435, melanoma; one dose 10 μM; read-out: Growth Inhibition Percentage (GI %)
SK-MEL-2 = test: NCI-60 anticancer screening (SRB); format: cell-based; details: Homo sapiens; SK-MEL-2, melanoma; one dose 10 μM; read-out: Growth Inhibition Percentage (GI %)
UACC-257 = test: NCI-60 anticancer screening (SRB); format: cell-based; details: Homo sapiens; UACC-257, melanoma; one dose 10 μM; read-out: Growth Inhibition Percentage (GI %)
IGROV1 = test: NCI-60 anticancer screening (SRB); format: cell-based; details: Homo sapiens, IGROV-1; IGROV1, ovarian cancer; one dose 10 μM; read-out: Growth Inhibition Percentage (GI %)
OVCAR-3 = test: NCI-60 anticancer screening (SRB); format: cell-based; details: Homo sapiens; OVCAR-3, ovarian cancer; one dose 10 μM; read-out: Growth Inhibition Percentage (GI %)
OVCAR-5 = test: NCI-60 anticancer screening (SRB); format: cell-based; details: Homo sapiens; OVCAR-5, ovarian cancer; one dose 10 μM; read-out: Growth Inhibition Percentage (GI %)
OVCAR-8 = test: NCI-60 anticancer screening (SRB); format: cell-based; details: Homo sapiens; OVCAR-8, ovarian cancer; one dose 10 μM; read-out: Growth Inhibition Percentage (GI %)
NCI/ADR-RES = test: NCI-60 anticancer screening (SRB); format: cell-based; details: Homo sapiens, ovarian cancer, one dose 10 μM, read-out: Growth Inhibition Percentage (GI %)
786-0 = test: NCI-60 anticancer screening (SRB); format: cell-based; details: Homo sapiens; 786-0, renal cancer; one dose 10 μM; read-out: Growth Inhibition Percentage (GI %)
CAKI-1 = test: NCI-60 anticancer screening (SRB); format: cell-based; details: Homo sapiens; CAKI-1, renal cancer; one dose 10 μM; read-out: Growth Inhibition Percentage (GI %)
UO-31 = test: NCI-60 anticancer screening (SRB); format: cell-based; details: Homo sapiens; UO-31, renal cancer; one dose 10 μM; read-out: Growth Inhibition Percentage (GI %)
DU-145 = test: NCI-60 anticancer screening (SRB); format: cell-based; details: Homo sapiens; DU-145, prostate cancer; one dose 10 μM; read-out: Growth Inhibition Percentage (GI %)
MDA-MB-231 = test: NCI-60 anticancer screening (SRB); format: cell-based; details: Homo sapiens; MDA-MB-231, breast cancer; one dose 10 μM; read-out: Growth Inhibition Percentage (GI %)
BT-549 = test: NCI-60 anticancer screening (SRB); format: cell-based; details: Homo sapiens; BT-549, breast cancer; one dose 10 μM; read-out: Growth Inhibition Percentage (GI %)
MDA-MB-468 = test: NCI-60 anticancer screening (SRB); format: cell-based; details: Homo sapiens; MDA-MB-468, breast cancer; one dose 10 μM; read-out: Growth Inhibition Percentage (GI %)
NCI 60 cancer cell lines = test: NCI-60 anticancer screening (SRB), whole panel; format: cell-based, human; details: mean across the NCI-60 panel; one dose 10 μM

Structure (SMILES)	inhibition at 10 µM (HL-60(TB)) [%]	inhibition at 10 µM (MOLT-4) [%]	inhibition at 10 µM (A549/ATCC) [%]	inhibition at 10 µM (EKVX) [%]	inhibition at 10 µM (HOP-62) [%]	inhibition at 10 µM (NCI-H226) [%]	inhibition at 10 µM (NCI-H322M) [%]	inhibition at 10 µM (NCI-H522) [%]	inhibition at 10 µM (COLO 205) [%]	inhibition at 10 µM (HCC-2998) [%]	inhibition at 10 µM (HCT-15) [%]	inhibition at 10 µM (KM 12) [%]	inhibition at 10 µM (SNB-19) [%]	inhibition at 10 µM (SNB-75) [%]	inhibition at 10 µM (U251) [%]	inhibition at 10 µM (MALME-3M) [%]	inhibition at 10 µM (MDA-MB-435) [%]	inhibition at 10 µM (SK-MEL-2) [%]	inhibition at 10 µM (UACC-257) [%]	inhibition at 10 µM (IGROV1) [%]	further results
CCOC(=O)C1=C(N)N(c2ccccc2)C2=C(C(=O)CC(C)(C)C2)C1c1ccccc1Cl (racemic) [6a, (±)-Ethyl 2-amino-4–(2-chlorophenyl)-7,7-dimethyl-5-oxo-1-phenyl-1,4,5,6,7,8-hexahydroquinoline-3-carboxylate]	123	75	25	26	< 10	24	18	43	35	15	51	42	30	34	21	11	27	43	28	< 10	inhibition at 10 µM (OVCAR-3): 38%; inhibition at 10 µM (OVCAR-5): 14%; inhibition at 10 µM (OVCAR-8): 17%; inhibition at 10 µM (NCI/ADR-RES): 27%; inhibition at 10 µM (786-0): 21%; inhibition at 10 µM (CAKI-1): 54%; inhibition at 10 µM (UO-31): 45%; inhibition at 10 µM (DU-145): 12%; inhibition at 10 µM (MDA-MB-231): 16%; inhibition at 10 µM (BT-549): 22%; inhibition at 10 µM (MDA-MB-468): 50%; GI % mean (NCI 60 cancer cell lines): 33%; melting point: 168 to 170 °C
CCOC(=O)C1=C(N)N(c2ccc(Cl)cc2)C2=C(C(=O)CC(C)(C)C2)C1c1ccccc1Cl (racemic) [6c, (±)-Ethyl 2-amino-4–(2-chlorophenyl)-1–(4-chlorophenyl)-7,7-dimethyl-5-oxo-1,4,5,6,7,8-hexahydroquinoline-3-carboxylate]	75	< 10	51	30	19	25	< 10	63	62	24	62	44	27	17	54	30	29	24	50	< 10	inhibition at 10 µM (OVCAR-3): 44%; inhibition at 10 µM (OVCAR-5): < 10%; inhibition at 10 µM (OVCAR-8): 30%; inhibition at 10 µM (NCI/ADR-RES): 24%; inhibition at 10 µM (786-0): 15%; inhibition at 10 µM (CAKI-1): 43%; inhibition at 10 µM (UO-31): 51%; inhibition at 10 µM (DU-145): < 10%; inhibition at 10 µM (MDA-MB-231): 24%; inhibition at 10 µM (BT-549): 40%; inhibition at 10 µM (MDA-MB-468): 60%; GI % mean (NCI 60 cancer cell lines): 34%; melting point: 179 to 181 °C
CCOC(=O)C1=C(N)N(c2ccccc2)C2=C(C(=O)CC(C)(C)C2)C1c1ccccc1Br (racemic) [6d, (±)-Ethyl 2-amino-4–(2-bromophenyl)-7,7-dimethyl-5-oxo-1-phenyl-1,4,5,6,7,8-hexahydroquinoline-3-carboxylate]	34	25	13	11	< 10	11	< 10	23	< 10	< 10	17	< 10	< 10	33	< 10	< 10	< 10	23	< 10	< 10	inhibition at 10 µM (OVCAR-3): < 10%; inhibition at 10 µM (OVCAR-5): < 10%; inhibition at 10 µM (OVCAR-8): < 10%; inhibition at 10 µM (NCI/ADR-RES): < 10%; inhibition at 10 µM (786-0): 13%; inhibition at 10 µM (CAKI-1): 36%; inhibition at 10 µM (UO-31): 14%; inhibition at 10 µM (DU-145): < 10%; inhibition at 10 µM (MDA-MB-231): < 10%; inhibition at 10 µM (BT-549): < 10%; inhibition at 10 µM (MDA-MB-468): 30%; GI % mean (NCI 60 cancer cell lines): 12%; melting point: 220 to 222 °C
CCOC(=O)C1=C(N)N(c2ccc(Cl)cc2)C2=C(C(=O)CC(C)(C)C2)C1c1ccc(Cl)cc1Cl (racemic) [10d, (±)-Ethyl 2-amino-1–(4-chorophenyl)-4–(2,4-dichlorophenyl)-7,7-dimethyl-5-oxo-1-phenyl-1,4,5,6,7,8-hexahydroquinoline-3-carboxylate]	79	71	48	71	46	62	29	51	53	23	65	54	46	11	58	32	42	37	43	16	inhibition at 10 µM (OVCAR-3): 49%; inhibition at 10 µM (OVCAR-5): 17%; inhibition at 10 µM (OVCAR-8): 29%; inhibition at 10 µM (NCI/ADR-RES): 47%; inhibition at 10 µM (786-0): 31%; inhibition at 10 µM (CAKI-1): 54%; inhibition at 10 µM (UO-31): 65%; inhibition at 10 µM (DU-145): 23%; inhibition at 10 µM (MDA-MB-231): 42%; inhibition at 10 µM (BT-549): 24%; inhibition at 10 µM (MDA-MB-468): 82%; GI % mean (NCI 60 cancer cell lines): 48%

— publication PMC10408569, “Recruitment of hexahydroquinoline as anticancer scaffold targeting inhibition of wild and mutants EGFR (EGFR^WT, EGFR^T790M, and EGFR^L858R)” (Journal of Enzyme Inhibition and Medicinal Chemistry, 2023)
